# Measurements taken from PubChem BioAssay (NCI).
# Values joined by “and” are separate entries in the source; they are usually repeats but may differ in a detail not shown here. Identical values can stand only once.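 In this assay, cells in 96-well plates receive the compound at five concentrations for 48 hours. Endpoints are linearly interpolated between the surrounding concentrations. Abbreviation: GI50, concentration required for 50% inhibition of growth. TGI marks complete inhibition of growth.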
# Key:
# Experiment in all cases: DTP human tumour cell line panel, 48 h
# M19-MEL melanoma = test system: M19-MEL melanoma
# LXFL 529 NSCLC = test system: LXFL 529 NSCLC
# HOP-18 NSCLC = test system: HOP-18 NSCLC
# SNB-19 CNS = test system: SNB-19 CNS
# HOP-62 NSCLC = test system: HOP-62 NSCLC
# MDA-MB-435 = test system: MDA-MB-435
# DMS 273 small cell lung = test system: DMS 273 small cell lung
# HT29 colon = test system: HT29 colon
# SF-539 CNS = test system: SF-539 CNS
# HCC-2998 colon = test system: HCC-2998 colon
# OVCAR-8 ovarian = test system: OVCAR-8 ovarian
# MDA-N = test system: MDA-N
# CAKI-1 renal = test system: CAKI-1 renal
# UACC-62 melanoma = test system: UACC-62 melanoma
# DU-145 prostate = test system: DU-145 prostate
# NCI-H23 lung = test system: NCI-H23 lung
# MDA-MB-231 breast = test system: MDA-MB-231 breast
# SF-268 CNS = test system: SF-268 CNS
# K-562 leukemia = test system: K-562 leukemia
# TK-10 renal = test system: TK-10 renal
# OVCAR-4 ovarian = test system: OVCAR-4 ovarian
# HCT-116 colon = test system: HCT-116 colon
# A498 renal = test system: A498 renal
# SK-OV-3 ovarian = test system: SK-OV-3 ovarian
# A549 NSCLC = test system: A549 NSCLC
# MALME-3M melanoma = test system: MALME-3M melanoma
# EKVX NSCLC = test system: EKVX NSCLC
# XF 498 CNS = test system: XF 498 CNS
# SF-295 CNS = test system: SF-295 CNS
# SN12C renal = test system: SN12C renal
# SK-MEL-28 melanoma = test system: SK-MEL-28 melanoma
# PC-3 prostate = test system: PC-3 prostate
# KM12 colon = test system: KM12 colon
# SW-620 colon = test system: SW-620 colon
# 786-0 renal = test system: 786-0 renal
# NCI-H460 lung = test system: NCI-H460 lung
# NCI-H522 lung = test system: NCI-H522 lung
# IGROV1 ovarian = test system: IGROV1 ovarian
# RXF 393 renal = test system: RXF 393 renal
# UO-31 renal = test system: UO-31 renal
# MCF7 breast = test system: MCF7 breast
# NCI-H226 lung = test system: NCI-H226 lung
# SR leukemia = test system: SR leukemia
# COLO 205 colon = test system: COLO 205 colon
# SNB-75 CNS = test system: SNB-75 CNS
# U251 CNS = test system: U251 CNS
# HOP-92 NSCLC = test system: HOP-92 NSCLC
# SK-MEL-2 melanoma = test system: SK-MEL-2 melanoma
# ACHN renal = test system: ACHN renal
# DLD-1 colon = test system: DLD-1 colon
# T-47D breast = test system: T-47D breast
# SK-MEL-5 melanoma = test system: SK-MEL-5 melanoma
# SNB-78 CNS = test system: SNB-78 CNS
# BT-549 breast = test system: BT-549 breast
# KM20L2 colon = test system: KM20L2 colon
# LOX IMVI melanoma = test system: LOX IMVI melanoma
# HS 578T breast = test system: HS 578T breast
# OVCAR-5 ovarian = test system: OVCAR-5 ovarian
# HCT-15 colon = test system: HCT-15 colon
# OVCAR-3 ovarian = test system: OVCAR-3 ovarian
# M14 melanoma = test system: M14 melanoma
# UACC-257 melanoma = test system: UACC-257 melanoma
structure (smiles),measurement,setting,value
CCC/C(=N\NC(=S)N1CC2CCC(CC2)C1)c1ccccn1,TGI,M19-MEL melanoma,0.298 µM and 1.46 µM
same,TGI,LXFL 529 NSCLC,0.143 µM and 0.129 µM
same,GI50,HOP-18 NSCLC,0.0675 µM
same,TGI,HOP-18 NSCLC,0.44 µM and 0.898 µM
same,GI50,SNB-19 CNS,0.338 µM
same,TGI,SNB-19 CNS,2.04 µM and 1.92 µM
same,GI50,HOP-62 NSCLC,1.16 µM
same,TGI,HOP-62 NSCLC,4.92 µM and 2.7 µM
same,TGI,MDA-MB-435,3.24 µM
same,TGI,DMS 273 small cell lung,0.374 µM and 2.35 µM
same,GI50,HT29 colon,0.0244 µM
same,TGI,HT29 colon,1.65 µM and 2.51 µM
same,GI50,SF-539 CNS,1.16 µM
same,TGI,SF-539 CNS,1.55 µM and 5.36 µM
same,GI50,HCC-2998 colon,0.244 µM
same,TGI,HCC-2998 colon,1.48 µM and 1.86 µM
same,TGI,OVCAR-8 ovarian,2.82 µM and 2.1 µM
same,TGI,MDA-N,2.72 µM
same,GI50,CAKI-1 renal,1.03 µM
same,TGI,CAKI-1 renal,2.75 µM and 2.69 µM
same,GI50,UACC-62 melanoma,0.0329 µM
same,TGI,UACC-62 melanoma,1.14 µM and 0.642 µM
same,TGI,DU-145 prostate,2.82 µM
same,GI50,NCI-H23 lung,0.0141 µM
same,TGI,NCI-H23 lung,2.77 µM and 0.674 µM
same,TGI,MDA-MB-231 breast,2.75 µM
same,GI50,SF-268 CNS,0.332 µM
same,TGI,SF-268 CNS,8.33 µM and 2.6 µM
same,TGI,K-562 leukemia,1.23 µM
same,TGI,TK-10 renal,5.84 µM and 2.9 µM
same,GI50,OVCAR-4 ovarian,0.119 µM
same,TGI,OVCAR-4 ovarian,0.897 µM and 0.702 µM
same,TGI,HCT-116 colon,0.86 µM
same,GI50,A498 renal,0.263 µM
same,TGI,A498 renal,2.06 µM and 1.61 µM
same,GI50,SK-OV-3 ovarian,1.1 µM
same,TGI,SK-OV-3 ovarian,2.13 µM and 2.31 µM
same,GI50,A549 NSCLC,0.122 µM
same,TGI,A549 NSCLC,5.23 µM and 2.01 µM
same,TGI,MALME-3M melanoma,2.76 µM and 1.99 µM
same,GI50,EKVX NSCLC,0.186 µM
same,GI50,XF 498 CNS,0.0106 µM
same,TGI,XF 498 CNS,0.0981 µM and 0.53 µM
same,GI50,SF-295 CNS,0.114 µM
same,TGI,SF-295 CNS,1.2 µM
same,GI50,SN12C renal,0.161 µM
same,TGI,SN12C renal,4.54 µM and 4.73 µM
same,GI50,SK-MEL-28 melanoma,0.0479 µM
same,TGI,SK-MEL-28 melanoma,5.16 µM and 1.29 µM
same,TGI,PC-3 prostate,1.39 µM
same,GI50,KM12 colon,0.0382 µM
same,TGI,KM12 colon,0.631 µM and 1.32 µM
same,TGI,SW-620 colon,0.555 µM and 0.221 µM
same,GI50,786-0 renal,1.25 µM
same,TGI,786-0 renal,1.19 µM and 2.55 µM
same,TGI,NCI-H460 lung,0.927 µM
same,TGI,NCI-H522 lung,0.738 µM
same,GI50,IGROV1 ovarian,0.372 µM
same,TGI,IGROV1 ovarian,1.4 µM and 2.21 µM
same,GI50,RXF 393 renal,0.0356 µM
same,TGI,RXF 393 renal,1.34 µM and 0.518 µM
same,GI50,UO-31 renal,0.124 µM
same,TGI,UO-31 renal,4.26 µM and 1.79 µM
same,TGI,MCF7 breast,1.44 µM
same,GI50,NCI-H226 lung,1.13 µM
same,TGI,NCI-H226 lung,4.79 µM and 2.58 µM
same,TGI,SR leukemia,2.77 µM
same,GI50,COLO 205 colon,0.0138 µM
same,TGI,COLO 205 colon,0.0997 µM and 0.281 µM
same,GI50,SNB-75 CNS,0.595 µM
same,TGI,SNB-75 CNS,3.21 µM and 2.18 µM
same,GI50,U251 CNS,0.142 µM
same,TGI,U251 CNS,0.627 µM and 1.38 µM
same,GI50,HOP-92 NSCLC,0.0362 µM
same,TGI,HOP-92 NSCLC,0.879 µM and 1.34 µM
same,GI50,SK-MEL-2 melanoma,1.02 µM
same,GI50,ACHN renal,0.0808 µM
same,TGI,ACHN renal,2.72 µM and 2.09 µM
same,TGI,DLD-1 colon,3.33 µM
same,TGI,T-47D breast,0.233 µM
same,GI50,SK-MEL-5 melanoma,0.0467 µM
same,TGI,SK-MEL-5 melanoma,0.757 µM and 0.483 µM
same,GI50,SNB-78 CNS,0.408 µM
same,TGI,SNB-78 CNS,8.71 µM
same,TGI,BT-549 breast,1.96 µM
same,GI50,KM20L2 colon,0.0165 µM
same,GI50,LOX IMVI melanoma,0.0199 µM
same,TGI,LOX IMVI melanoma,4.31 µM and 2.13 µM
same,TGI,HS 578T breast,4.43 µM
same,GI50,OVCAR-5 ovarian,1.25 µM
same,TGI,OVCAR-5 ovarian,5.64 µM and 3 µM
same,TGI,HCT-15 colon,0.716 µM and 2.91 µM
same,GI50,OVCAR-3 ovarian,0.0246 µM
same,TGI,OVCAR-3 ovarian,0.872 µM and 0.622 µM
same,GI50,M14 melanoma,0.0142 µM
same,TGI,M14 melanoma,0.598 µM and 0.207 µM
same,TGI,UACC-257 melanoma,0.197 µM and 1.35 µM
